molecular target: FXR (Homo sapiens (Human), UniProt Q96RI1); assay: transient human FXR/Gal4-luciferase reporter assay; format: cell-based; conditions: not given
Method in brief: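 Compound exposure ran overnight at 37 °C and activity was measured as luminescence with Steady-Glo reagent. The cells were a HEK293 line stably expressing firefly luciferase under five Gal4 response elements. They were transiently transfected, one night beforehand, with a plasmid encoding Gal4 DNA-binding domain fused to the human FXR ligand-binding domain.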

Sequence of FXR (Q96RI1 262-486): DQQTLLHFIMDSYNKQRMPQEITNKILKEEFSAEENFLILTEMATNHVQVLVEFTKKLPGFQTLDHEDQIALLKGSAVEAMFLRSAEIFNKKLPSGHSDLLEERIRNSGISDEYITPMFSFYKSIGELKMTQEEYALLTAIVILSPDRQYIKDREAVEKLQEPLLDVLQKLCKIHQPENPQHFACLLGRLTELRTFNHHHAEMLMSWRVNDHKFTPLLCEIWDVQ

Point of comparison: `Cc1nc2ccc(-c3cccc(N(CC45CCC(c6nnc(C7CC7)o6)(CC4)CC5)C(=O)C4CCC(F)(F)C4)c3)cc2s1` (stereo not drawn) [Example 563, N-((4-(5-cyclopropyl-1,3,4-oxadiazol-2-yl)bicyclo[2.2.2]octan-1-yl)methyl)-3,3-difluoro-N-(3-(2-methylbenzo[d]thiazol-6-yl)phenyl)cyclopentane-1-carboxamide], EC50 154 nM. Against it:
- CS(=O)(=O)Nc1ccc(-c2cccc(N(CC34CCC(c5noc(C(F)F)n5)(CC3)CC4)C(=O)C34CC(F)(C3)C4)c2)cc1 [Example 460, N-((4-(5-(difluoromethyl)-1,2,4-oxadiazol-3-yl)bicyclo[2.2.2]octan-1-yl)methyl)-3-fluoro-N-(4′-(methylsulfonamido)-[1,1′-biphenyl]-3-yl)bicyclo[1.1.1]pentane-1-carboxamide] — 2.2-fold higher, 338 nM
- CC(C)(C)c1nc(C23CCC(CN(C(=O)C45CC(F)(C4)C5)c4cncc(-c5ccc(OC(F)F)cc5)c4)(CC2)CC3)no1 [Example 483, N-((4-(5-(tert-butyl)-1,2,4-oxadiazol-3-yl)bicyclo[2.2.2]octan-1-yl)methyl)-N-(5-(4-(difluoromethoxy)phenyl)pyridin-3-yl)-3-fluorobicyclo[1.1.1]pentane-1-carboxamide] — 1.7-fold higher, 255 nM
- O=C(N(CC12CCC(c3noc(C(F)F)n3)(CC1)CC2)c1cccc(-c2ccc(OC(F)F)cc2)c1)C12CC(F)(C1)C2 [Example 465, N-(4′-(difluoromethoxy)-[1,1′-biphenyl]-3-yl)-N-((4-(5-(difluoromethyl)-1,2,4-oxadiazol-3-yl)bicyclo[2.2.2]octan-1-yl)methyl)-3-fluorobicyclo[1.1.1]pentane-1-carboxamide] — within 1.5-fold, 180 nM
- CC(C)(C)c1nc(C23CCC(CN(C(=O)C45CC(F)(C4)C5)c4cncc(-c5ccc(NS(C)(=O)=O)cc5)c4)(CC2)CC3)no1 [Example 481, N-((4-(5-(tert-butyl)-1,2,4-oxadiazol-3-yl)bicyclo[2.2.2]octan-1-yl)methyl)-3-fluoro-N-(5-(4-(methylsulfonamido)phenyl)pyridin-3-yl)bicyclo[1.1.1]pentane-1-carboxamide] — 3.8-fold higher, 580 nM
- CC(C)(O)c1ccc(-c2cccc(N(CC34CCC(c5noc(C(C)(C)F)n5)(CC3)CC4)C(=O)NCC(F)(F)CO)c2)cc1 [Example 646, 3-(2,2-difluoro-3-hydroxypropyl)-1-((4-(5-(2-fluoropropan-2-yl)-1,2,4-oxadiazol-3-yl)bicyclo[2.2.2]octan-1-yl)methyl)-1-(4′-(2-hydroxypropan-2-yl)-[1,1′-biphenyl]-3-yl)urea] — 1.8-fold higher, 270 nM

same assay, conditions: Gal4-hFXR fusion construct, HEK293 reporter cells; response relative to 8 μM GW-4064

Point of comparison: `CC(C)(O)c1ccc(-c2cccc(N(CC34CCC(c5nc(C6CC6)no5)(CC3)CC4)C(=O)OC(C)(C)C(F)(F)F)c2)cc1` [Example 623, 1,1,1-trifluoro-2-methylpropan-2-yl((4-(3-cyclopropyl-1,2,4-oxadiazol-5-yl)bicyclo[2.2.2]octan-1-yl)methyl)(4′-(2-hydroxypropan-2-yl)-[1,1′-biphenyl]-3-yl)carbamate], EC50 50 nM. Against it:
- CCOc1ncc(-c2cccc(N(CC34CCC(c5ncc(OC)cn5)(CC3)CC4)C(=O)C34CC(F)(C3)C4)c2)cn1 [Example 552, N-(3-(2-ethoxypyrimidin-5-yl)phenyl)-3-fluoro-N-((4-(5-methoxypyrimidin-2-yl)bicyclo[2.2.2]octan-1-yl)methyl)bicyclo[1.1.1]pentane-1-carboxamide] — 7.2-fold higher, 359 nM
- COc1ccc(-c2cccc(N(CC34CCC(c5nnc(C6CC6)o5)(CC3)CC4)C(=O)C34CC(F)(C3)C4)c2)cn1 [Example 343, N-((4-(5-cyclopropyl-1,3,4-oxadiazol-2-yl)bicyclo[2.2.2]octan-1-yl)methyl)-3-fluoro-N-(3-(6-methoxypyridin-3-yl)phenyl)bicyclo[1.1.1]pentane-1-carboxamide] — 3.1-fold higher, 154 nM
- CN1CCN(c2cccc(N(CC34CCC(c5nc(C6CC6)no5)(CC3)CC4)C(=O)C34CC(F)(C3)C4)c2)CC1 [Example 416, N-((4-(3-cyclopropyl-1,2,4-oxadiazol-5-yl)bicyclo[2.2.2]octan-1-yl)methyl)-3-fluoro-N-(3-(4-methylpiperazin-1-yl)phenyl)bicyclo[1.1.1]pentane-1-carboxamide] — 21-fold higher, 1060 nM
- Cn1ncc2cc(C#N)c(-c3cccc(N(CC45CCC(c6nc(C7CC7)no6)(CC4)CC5)C(=O)C45CC(F)(C4)C5)c3)nc21 [Example 313, N-(3-(5-cyano-1-methyl-1H-pyrazolo[3,4-b]pyridin-6-yl)phenyl)-N-((4-(3-cyclopropyl-1,2,4-oxadiazol-5-yl)bicyclo[2.2.2]octan-1-yl)methyl)-3-fluorobicyclo[1.1.1]pentane-1-carboxamide] — 3.9-fold higher, 194 nM
- CCc1cnc(-c2cccc(N(CC34CCC(c5noc(C(C)(C)C)n5)(CC3)CC4)C(=O)C34CC(F)(C3)C4)c2)nc1 [Example 453, N-((4-(5-(tert-butyl)-1,2,4-oxadiazol-3-yl)bicyclo[2.2.2]octan-1-yl)methyl)-N-(3-(5-ethylpyrimidin-2-yl)phenyl)-3-fluorobicyclo[1.1.1]pentane-1-carboxamide] — within 1.5-fold, 34 nM
- O=C(N(CC12CCC(c3noc(C(F)(F)F)n3)(CC1)CC2)c1cccc(C2CC2)c1)C12CC(F)(C1)C2 [Example 572, N-(3-cyclopropylphenyl)-3-fluoro-N-((4-(5-(trifluoromethyl)-1,2,4-oxadiazol-3-yl)bicyclo[2.2.2]octan-1-yl)methyl)bicyclo[1.1.1]pentane-1-carboxamide] — 2.9-fold higher, 146 nM
- O=C(NC12CCC(CN(C(=O)C3CC(O)(C(F)(F)F)C3)c3cccc(-c4ccc(OC(F)F)cc4)c3)(CC1)CC2)c1ccc(F)cc1 (stereo not drawn) [Example 637, N-(4-(((cis)-N-(4′-(difluoromethoxy)-[1,1′-biphenyl]-3-yl)-3-hydroxy-3-(trifluoromethyl)cyclobutane-1-carboxamido)methyl)bicyclo[2.2.2]octan-1-yl)-4-fluorobenzamide] — 7.7-fold higher, 384 nM
- CC(C)(C#N)Oc1ccc(-c2ccnc(N(CC34CCC(c5nc(C6CC6)no5)(CC3)CC4)C(=O)OC(C)(C)C(F)(F)F)c2)cc1 [Example 622, 1,1,1-trifluoro-2-methylpropan-2-yl(4-(4-((2-cyanopropan-2-yl)oxy)phenyl)pyridin-2-yl) ((4-(3-cyclopropyl-1,2,4-oxadiazol-5-yl)bicyclo[2.2.2]octan-1-yl)methyl)carbamate] — within 1.5-fold, 34 nM
- COc1cc(-c2cccc(N(CC34CCC(c5nnc(C)s5)(CC3)CC4)C(=O)C3CC(F)(F)C3)c2)ccn1 [Example 234, 3,3-difluoro-N-(3-(2-methoxypyridin-4-yl)phenyl)-N-((4-(5-methyl-1,3,4-thiadiazol-2-yl)bicyclo[2.2.2]octan-1-yl)methyl)cyclobutane-1-carboxamide] — 35-fold higher, 1760 nM
- O=C(N(CC12CCC(c3nc(C4CC4)no3)(CC1)CC2)c1cccc(-c2ccc(Cl)c(Cl)c2)c1)C12CC(F)(C1)C2 [Example 286, N-((4-(3-cyclopropyl-1,2,4-oxadiazol-5-yl)bicyclo[2.2.2]octan-1-yl)methyl)-N-(3′,4′-dichloro-[1,1′-biphenyl]-3-yl)-3-fluorobicyclo[1.1.1]pentane-1-carboxamide] — 7.2-fold higher, 361 nM
- CC(C)(C)c1noc(C23CCC(CN(C(=O)C45CC(F)(C4)C5)c4cccc(-c5ccc(NS(C)(=O)=O)cc5)c4)(CC2)CC3)n1 [Example 361, N-((4-(3-(tert-butyl)-1,2,4-oxadiazol-5-yl)bicyclo[2.2.2]octan-1-yl)methyl)-3-fluoro-N-(4′-(methylsulfonamido)-[1,1′-biphenyl]-3-yl)bicyclo[1.1.1]pentane-1-carboxamide] — 17-fold higher, 843 nM
- CCOc1ncc(-c2cccc(N(CC34CCC(c5noc(C(C)C)n5)(CC3)CC4)C(=O)C34CC(F)(C3)C4)c2)cn1 [Example 429, N-(3-(2-ethoxypyrimidin-5-yl)phenyl)-3-fluoro-N-((4-(5-isopropyl-1,2,4-oxadiazol-3-yl)bicyclo[2.2.2]octan-1-yl)methyl)bicyclo[1.1.1]pentane-1-carboxamide] — within 1.5-fold, 46 nM
- COc1ccc(-c2cccc(N(CC34CCC(c5nc(C6CC6)no5)(CC3)CC4)C(=O)C34CC(F)(C3)C4)c2)cn1 [Example 249, N-((4-(3-cyclopropyl-1,2,4-oxadiazol-5-yl)bicyclo[2.2.2]octan-1-yl)methyl)-3-fluoro-N-(3-(6-methoxypyridin-3-yl)phenyl)bicyclo[1.1.1]pentane-1-carboxamide] — 3.1-fold higher, 153 nM
- Cc1nc2c(C)cc(-c3cccc(N(CC45CCC(c6nc(C7CC7)no6)(CC4)CC5)C(=O)C45CC(F)(C4)C5)c3)cn2n1 [Example 265, N-((4-(3-cyclopropyl-1,2,4-oxadiazol-5-yl)bicyclo[2.2.2]octan-1-yl)methyl)-N-(3-(2,8-dimethyl-[1,2,4]triazolo[1,5-a]pyridin-6-yl)phenyl)-3-fluorobicyclo[1.1.1]pentane-1-carboxamide] — 10-fold higher, 510 nM
- COCc1ccc(-c2cccc(N(CC34CCC(c5nc(C6CC6)no5)(CC3)CC4)C(=O)C34CC(F)(C3)C4)c2)cc1 [Example 273, N-((4-(3-cyclopropyl-1,2,4-oxadiazol-5-yl)bicyclo[2.2.2]octan-1-yl)methyl)-3-fluoro-N-(4′-(methoxymethyl)-[1,1′-biphenyl]-3-yl)bicyclo[1.1.1]pentane-1-carboxamide] — within 1.5-fold, 52 nM
- CC(C)(C)c1nc(C23CCC(CN(C(=O)C45CC(F)(C4)C5)c4cc(-c5ncc(OC(F)F)cn5)ccn4)(CC2)CC3)no1 [Example 541, N-((4-(5-(tert-butyl)-1,2,4-oxadiazol-3-yl)bicyclo[2.2.2]octan-1-yl)methyl)-N-(4-(5-(difluoromethoxy)pyrimidin-2-yl)pyridin-2-yl)-3-fluorobicyclo[1.1.1]pentane-1-carboxamide] — 2.8-fold lower, 18 nM
- O=C(N(CC12CCC(c3nc(C4CC4)no3)(CC1)CC2)c1cccc(-c2cnc3cc(Cl)cnn23)c1)C12CC(F)(C1)C2 [Example 329, N-(3-(7-chloroimidazo[1,2-b]pyridazin-3-yl)phenyl)-N-((4-(3-cyclopropyl-1,2,4-oxadiazol-5-yl)bicyclo[2.2.2]octan-1-yl)methyl)-3-fluorobicyclo[1.1.1]pentane-1-carboxamide] — 4.4-fold higher, 222 nM
